Experimental data: US5276058A, “3,4-dihydroxychalcone derivatives” (Nippon Hypox Laboratories Incorporated, priority 1993, dated 1994)

Assays:
[1] = JP,A 63-297847; cited from earlier work
[2] = tested on: enzymes which are to cause inflammation; conditions: in vitro; PROSTAGLADINSS (1985, 30 (3) 357); cited from earlier work
[3] = Food Chemistry (1983, 12) 205-212; cited from earlier work
[4] = JP,A 61-76433; cited from earlier work
[5] = target: T1, 5-lipoxygenase (Rattus norvegicus, UniProt P12527); assay: 5-lipoxygenase inhibiting activity test (RBL-1 cell homogenate); assay type: biochemical; conditions: pH 7.4, 37° C., 5-HETE formation
T1 construct: endogenous in cells; host or cells: RBL-1 cell homogenate
T1 sequence (P12527 1-673): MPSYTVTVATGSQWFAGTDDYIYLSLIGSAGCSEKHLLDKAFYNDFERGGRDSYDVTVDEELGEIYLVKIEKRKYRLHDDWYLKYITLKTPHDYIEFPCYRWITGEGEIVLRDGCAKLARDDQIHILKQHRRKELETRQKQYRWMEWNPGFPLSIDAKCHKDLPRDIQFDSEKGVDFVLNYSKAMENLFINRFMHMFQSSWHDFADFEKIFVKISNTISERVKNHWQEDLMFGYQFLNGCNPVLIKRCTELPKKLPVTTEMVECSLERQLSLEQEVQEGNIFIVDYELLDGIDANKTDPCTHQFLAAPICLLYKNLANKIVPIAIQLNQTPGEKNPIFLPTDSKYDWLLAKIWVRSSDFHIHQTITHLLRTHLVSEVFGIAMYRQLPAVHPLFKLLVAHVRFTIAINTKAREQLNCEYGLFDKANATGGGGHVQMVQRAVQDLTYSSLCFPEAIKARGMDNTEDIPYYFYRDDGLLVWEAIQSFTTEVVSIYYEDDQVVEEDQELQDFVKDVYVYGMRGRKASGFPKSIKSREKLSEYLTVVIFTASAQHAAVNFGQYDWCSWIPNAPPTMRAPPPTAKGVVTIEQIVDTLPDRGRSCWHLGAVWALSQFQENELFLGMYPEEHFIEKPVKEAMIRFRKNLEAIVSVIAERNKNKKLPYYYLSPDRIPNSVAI
Experimental: RBL-1 cell homogenate was suspended in a 50 mM phosphoric acid buffer solution (pH 7.4) containing 2 mM of CaCl2, 0.25 mM of sucrose, 1 mM of EDTA-2Na and glutathione, and the mixture was heated to 37° C. Arachidonic acid was added to the mixture to form 5-HETE (5-hydroxyeicosatetraenonic acid), and the 5-HETE was measured for an amount by a high-performance liquid chromatography.
The 3,4-dihydroxychalcone derivatives shown in Table 11 were selected as test compounds. The 5-lipoxygenase inhibiting activity of each test compound was evaluated as follows. Each test compound was independently added to the above phosphoric acid buffer solution, and the 5-HETE amount was measured in the same manner as above. The inhibition ratio of each test compound was determined in comparison with that of the control group, and the value of IC50 was calculated by a conventional method.

[6] = tested on: ear swelling induced by arachidonic acid; assay: topical anti-inflammatory activity test (arachidonic acid-induced ear swelling); assay type: in vivo, male ICR mice; conditions: Mus musculus, 1 hour before 1 mg arachidonic acid, read-out: Ratio of inhibition of ear swelling induced by arachidonic acid; for inhibition in vivo at 30 µg/ear: 30 μg/ear; for inhibition in vivo at 10 µg/ear: 10 μg/ear; for inhibition in vivo at 100 µg/ear: 100 μg/ear
Experimental: The 3,4-dihydroxychalcone derivatives shown in Table 9, as test compounds, were subjected to the following topical anti-inflammatory activity test.
Acetone solutions were prepared from the test compounds. Then, the acetone solution were applied to the right ears of male ICR mice such that the dose of each test compound was 10 μg/ear, 30 μg/ear of 100 μg/ear. One hour after the application, 1 mg of arachidonic acid was applied to each right ear to cause ear swelling.
One hour after the application of the arachidonic acid, the mice were sacrificed by vertebral cervical dislocation, and the right and left ears were taken and separately weighed. The weight of the right ear to which the arachidonic acid had been applied was divided by the weight of the non-treated left ear to obtain a swelling ratio.
The effect of each test compound was shown in the following manner. The relative values of the swelling ratios of individual mice were calculated on an assumption that the average value of the swelling ratios of the solvent control group was taken as 100, and amounts of their decreases were expressed by percentages (inhibition ratios).

[7] = target: T2, cyclooxygenase (Ovis aries, UniProt P05979); assay: cyclooxygenase inhibiting activity test; assay type: biochemical; conditions: sheep seminal vesicle, pH 7.4, prostaglandin E2 formation
T2 construct: containing sheep seminal vesicle; from tissue; host or cells: sheep seminal vesicle
T2 sequence (P05979 25-600): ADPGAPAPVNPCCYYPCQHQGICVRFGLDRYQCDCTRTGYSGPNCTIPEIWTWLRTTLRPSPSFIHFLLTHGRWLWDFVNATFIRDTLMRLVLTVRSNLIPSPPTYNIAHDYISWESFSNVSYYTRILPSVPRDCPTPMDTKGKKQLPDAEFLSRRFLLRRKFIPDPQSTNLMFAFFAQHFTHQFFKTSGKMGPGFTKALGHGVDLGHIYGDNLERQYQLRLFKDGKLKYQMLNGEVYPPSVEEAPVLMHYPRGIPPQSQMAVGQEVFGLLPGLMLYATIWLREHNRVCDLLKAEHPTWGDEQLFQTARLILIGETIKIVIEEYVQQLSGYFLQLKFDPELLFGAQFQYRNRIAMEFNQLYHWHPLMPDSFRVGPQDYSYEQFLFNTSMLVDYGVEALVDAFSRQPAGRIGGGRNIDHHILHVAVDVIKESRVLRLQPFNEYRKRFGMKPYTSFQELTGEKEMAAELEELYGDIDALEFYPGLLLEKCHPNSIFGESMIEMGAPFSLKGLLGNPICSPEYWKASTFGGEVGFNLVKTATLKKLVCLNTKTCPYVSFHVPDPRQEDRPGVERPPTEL
Experimental: A 50 mM phosphoric acid buffer solution (pH 7.4) containing sheep seminal vesicle, 2 mM of glutathione, 0.6 mM of epinephrine and 80 μM of EDTA-2Na preheated at 37° C. for 2 minutes, and then ^14 C-arachidonic acid was added to the reaction mixture. The mixture was heated for 10 minutes to form prostaglandin E2, and the radiation activity of the formed prostaglandin E2 was taken as cyclooxygenase activity. The 3,4-dihydroxychalcone derivatives shown in Table 10 were selected as test compounds. The cyclooxygenase inhibiting activity of each test compound was evaluated as follows. Each test compound was independently added to the above phosphoric acid buffer solution, and the radiation activity of the formed prostaglandin E2 was measured in the same manner as above. The inhibition ratio of each test compound was determined in comparison with that of the control group, and the value of IC50 was calculated by a conventional method.

Compound	IC50 [7] [µM]	inhibition in vivo at 30 µg/ear [6] [%]	also measured
O=C(/C=C/c1ccc(O)c(O)c1)c1cccc(O)c1O [2',3',3,4-tetrahydroxychalcone]			anti-inflammatory activity [1]: extensive anti-inflammatory activity
O=C(/C=C/c1ccc(O)c(O)c1)c1ccccc1O [2',3,4-trihydroxychalcone]			inhibiting activity against enzymes which are to cause inflammation [2]: inhibiting activity against enzymes which are to cause inflammation
O=C(/C=C/c1ccc(O)c(O)c1)c1ccc(O)cc1O [2',4',3,4-tetrahydroxychalcone]			inhibiting activity against enzymes which are to cause inflammation [2]: inhibiting activity against enzymes which are to cause inflammation
O=C(/C=C/c1ccc(O)c(O)c1)c1ccccc1 [3,4-dihydroxychalcone]			activity to inhibit the oxidation of edible oils [3]: activity to inhibit the oxidation of edible oils; inhibiting activity against enzymes which are to cause inflammation [2]: inhibiting activity against enzymes which are to cause inflammation
COc1ccc(C(=O)C=Cc2ccc(O)c(O)c2)c(OC)c1OC [3-(3,4-dihydroxyphenyl)-1-(2,3,4-trimethoxyphenyl)-2-propen-1-one]			antiallergic activity [4]: antiallergic activity
O=C(/C=C/c1ccc(O)c(O)c1)c1ccc(O)cc1 [4',3,4-trihydroxychalcone]			inhibiting activity against enzymes which are to cause inflammation [2]: inhibiting activity against enzymes which are to cause inflammation
COc1ccc(OC)c(C(=O)/C=C/c2ccc(O)c(O)c2)c1 [Example 1, 2',5'-dimethoxy-3,4-dihydroxychalcone]	17.1	77	IC50 [5]: 0.0078 µM
COc1ccc(C(=O)C=Cc2ccc(O)c(O)c2)c(OC)c1 [Example 2]	156	56	
O=C(C=Cc1ccc(O)c(O)c1)c1cc(O)ccc1O [Example 3]	169	39	
COc1ccc(C(=O)C=Cc2ccc(O)c(O)c2)c(O)c1 [Example 4]	64.8	35	
Cc1ccc(O)c(C(=O)C=Cc2ccc(O)c(O)c2)c1 [Example 5]	121	52	inhibition in vivo at 10 µg/ear [6]: 31%
COc1ccc(O)c(C(=O)C=Cc2ccc(O)c(O)c2)c1 [Example 6]	41.3	38	inhibition in vivo at 10 µg/ear [6]: 7.6%; inhibition in vivo at 100 µg/ear [6]: 43%
CC(C)c1ccc(O)c(C(=O)C=Cc2ccc(O)c(O)c2)c1 [Example 7]	37.3	9	
CC(C)Oc1ccc(O)c(C(=O)C=Cc2ccc(O)c(O)c2)c1 [Example 8]		67	
CCCCOc1ccc(O)c(C(=O)C=Cc2ccc(O)c(O)c2)c1 [Example 9]		31	
CCOc1ccc(O)c(C(=O)C=Cc2ccc(O)c(O)c2)c1 [Example 10]	129	43	
COc1ccc(C)cc1C(=O)C=Cc1ccc(O)c(O)c1 [Example 11]	29.7	32	
COc1cccc(OC)c1C(=O)C=Cc1ccc(O)c(O)c1 [Example 12]		8	
CCOc1ccc(OC)c(C(=O)C=Cc2ccc(O)c(O)c2)c1 [Example 13]	26	13	
COc1ccc(OC(C)C)cc1C(=O)C=Cc1ccc(O)c(O)c1 [Example 14]	59.9	33	
CC(C)Oc1ccc(C(=O)C=Cc2ccc(O)c(O)c2)cc1 [Example 22]		5	
COc1cc(C(=O)C=Cc2ccc(O)c(O)c2)ccc1O [Example 28]		47	
COc1cc(C(=O)C=Cc2ccc(O)c(O)c2)cc(OC)c1OC [Example 30]		65	

Continued, in another order:

IC50 [7] [µM]	Compound	inhibition in vivo at 30 µg/ear [6] [%]	also measured
3.2	CCOc1ccc(OC)cc1C(=O)C=Cc1ccc(O)c(O)c1 [Example 15]	7.4	
24.4	CCOc1ccc(OCC)c(C(=O)C=Cc2ccc(O)c(O)c2)c1 [Example 16]		inhibition in vivo at 10 µg/ear [6]: 7%
71	Cc1cccc(C(=O)C=Cc2ccc(O)c(O)c2)c1 [Example 17]	28	inhibition in vivo at 100 µg/ear [6]: 38%
210	Cc1ccc(C(=O)C=Cc2ccc(O)c(O)c2)cc1 [Example 18]	27	
35.3	COc1ccccc1C(=O)C=Cc1ccc(O)c(O)c1 [Example 19]	42	
15.1	COc1cccc(C(=O)C=Cc2ccc(O)c(O)c2)c1 [Example 20]	58	
488	COc1ccc(C(=O)C=Cc2ccc(O)c(O)c2)cc1 [Example 21]		inhibition in vivo at 10 µg/ear [6]: 45%
40.6	CN(C)c1cccc(C(=O)C=Cc2ccc(O)c(O)c2)c1 [Example 23]	19	
808	CN(C)c1ccc(C(=O)C=Cc2ccc(O)c(O)c2)cc1 [Example 24]	21	
40.5	Cc1ccc(C(=O)C=Cc2ccc(O)c(O)c2)c(C)c1 [Example 25]	43	
43.7	Cc1ccc(C)c(C(=O)C=Cc2ccc(O)c(O)c2)c1 [Example 26]	58	
275	Cc1cc(C)c(C(=O)C=Cc2ccc(O)c(O)c2)c(C)c1 [Example 27]	47	
829	COc1ccc(C(=O)C=Cc2ccc(O)c(O)c2)cc1OC [Example 29]	38	
